Tests used:
[1] = biological target: Galanin receptor type 1 (Homo sapiens) (UniProt P47211); assay: Displacement of [125I]galanin from human recombinant GAL1 receptor expressed in HEK293 cells at 10 uM after 60 mins by scintillation counting; format: cell-based
[2] = biological target: Pituitary adenylate cyclase-activating polypeptide type I receptor (Homo sapiens) (UniProt P41586); assay: Displacement of [125I]PACAP1-27 from human recombinant PAC1 receptor expressed in CHO cells at 10 uM after 120 mins by scintillation counting; format: cell-based
[3] = biological target: 5-hydroxytryptamine receptor 1B (Rattus norvegicus) (UniProt P28564); assay: Displacement of [125I]CYP from 5HT1B receptor in rat cerebral cortex at 10 uM after 120 mins by scintillation counting in presence of 30 uM isoproterenol; format: tissue-based
Sequence of 5-hydroxytryptamine receptor 1B (Rattus norvegicus) (P28564 whole entry): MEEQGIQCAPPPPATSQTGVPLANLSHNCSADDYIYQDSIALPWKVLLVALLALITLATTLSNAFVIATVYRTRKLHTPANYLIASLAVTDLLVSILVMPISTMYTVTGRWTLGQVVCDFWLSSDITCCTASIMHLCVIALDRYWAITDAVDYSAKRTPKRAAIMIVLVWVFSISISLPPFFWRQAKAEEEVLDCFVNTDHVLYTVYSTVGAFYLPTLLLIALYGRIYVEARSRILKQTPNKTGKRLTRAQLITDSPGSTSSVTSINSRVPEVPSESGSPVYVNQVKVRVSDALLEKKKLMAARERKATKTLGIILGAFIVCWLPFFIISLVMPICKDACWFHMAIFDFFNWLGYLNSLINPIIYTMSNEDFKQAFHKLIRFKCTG

[4] = biological target: Melanocortin receptor 4 (Homo sapiens) (UniProt P32245); assay: Displacement of [125I]NDP-a-MSH from human recombinant MC4 receptor expressed in CHO cells at 10 uM after 120 mins by scintillation counting; format: cell-based
Sequence of Melanocortin receptor 4 (Homo sapiens) (P32245 whole entry): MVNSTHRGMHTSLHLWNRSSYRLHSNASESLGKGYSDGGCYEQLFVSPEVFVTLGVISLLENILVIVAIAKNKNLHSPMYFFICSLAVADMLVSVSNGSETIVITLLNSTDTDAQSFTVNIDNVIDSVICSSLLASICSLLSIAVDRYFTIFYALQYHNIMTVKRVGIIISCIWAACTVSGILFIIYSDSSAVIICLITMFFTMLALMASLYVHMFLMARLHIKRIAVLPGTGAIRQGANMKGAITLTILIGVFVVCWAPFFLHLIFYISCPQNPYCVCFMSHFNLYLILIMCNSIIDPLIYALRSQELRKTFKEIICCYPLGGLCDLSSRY

[5] = biological target: 5-hydroxytryptamine receptor 2B (Homo sapiens) (UniProt P41595); assay: Displacement of [125I](+/-)DOI from human recombinant 5HT2B receptor expressed in CHO cells at 10 uM after 60 mins by scintillation counting; format: cell-based
[6] = biological target: P2X purinoceptor 6 (Homo sapiens, UniProt O15547); assay: Antagonist activity at P2X6 receptor; format: functional
Sequence of P2X purinoceptor 6 (O15547 whole entry): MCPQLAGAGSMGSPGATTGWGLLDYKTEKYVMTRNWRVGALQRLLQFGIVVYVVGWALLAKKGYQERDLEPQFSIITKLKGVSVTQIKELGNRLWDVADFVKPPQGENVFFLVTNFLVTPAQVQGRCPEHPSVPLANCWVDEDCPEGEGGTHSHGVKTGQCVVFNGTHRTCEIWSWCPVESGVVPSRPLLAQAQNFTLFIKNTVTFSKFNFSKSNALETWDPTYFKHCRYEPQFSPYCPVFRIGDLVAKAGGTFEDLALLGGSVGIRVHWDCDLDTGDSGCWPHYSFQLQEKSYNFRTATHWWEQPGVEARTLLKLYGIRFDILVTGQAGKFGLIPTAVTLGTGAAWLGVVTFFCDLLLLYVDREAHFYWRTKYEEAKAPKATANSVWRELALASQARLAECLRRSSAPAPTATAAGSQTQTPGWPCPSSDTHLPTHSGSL

[7] = species on record: Rattus norvegicus; assay: Displacement of [3H]GABA from GABA receptor in rat cerebral cortex at 10 uM after 60 mins by scintillation counting; format: tissue-based
[8] = biological target: 5-hydroxytryptamine receptor 3A (Homo sapiens) (UniProt P46098); assay: Displacement of [3H]BRL43694 from human recombinant 5HT3 receptor expressed in CHO cells at 10 uM after 120 mins by scintillation counting; format: cell-based
Sequence of 5-hydroxytryptamine receptor 3A (Homo sapiens) (P46098 whole entry): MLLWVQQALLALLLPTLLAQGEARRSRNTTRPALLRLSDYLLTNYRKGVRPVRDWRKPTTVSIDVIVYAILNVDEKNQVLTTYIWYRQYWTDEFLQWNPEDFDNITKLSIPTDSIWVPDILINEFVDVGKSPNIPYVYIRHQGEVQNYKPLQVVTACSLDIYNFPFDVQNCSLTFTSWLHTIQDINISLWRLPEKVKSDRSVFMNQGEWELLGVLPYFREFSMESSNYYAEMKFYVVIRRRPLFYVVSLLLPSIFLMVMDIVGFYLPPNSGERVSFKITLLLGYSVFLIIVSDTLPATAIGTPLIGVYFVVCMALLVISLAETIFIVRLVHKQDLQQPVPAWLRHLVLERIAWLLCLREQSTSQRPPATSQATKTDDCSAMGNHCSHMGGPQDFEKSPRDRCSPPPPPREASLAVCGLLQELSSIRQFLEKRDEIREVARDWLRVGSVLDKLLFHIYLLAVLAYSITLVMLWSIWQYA

[9] = Oral bioavailability in rat; format: ADME, organism-based; conditions: in vivo
[10] = biological target: 5-hydroxytryptamine receptor 2A (Homo sapiens) (UniProt P28223); assay: Displacement of [3H]ketanserin from human recombinant 5HT2A receptor expressed in HEK293 cells at 10 uM after 60 mins by scintillation counting; format: cell-based
[11] = biological target: Sodium-dependent dopamine transporter (Homo sapiens) (UniProt Q01959); assay: Displacement of [3H]BTCP from human recombinant DAT expressed in CHO cells at 10 uM after 120 mins by scintillation counting; format: cell-based
Sequence of Sodium-dependent dopamine transporter (Homo sapiens) (Q01959 whole entry): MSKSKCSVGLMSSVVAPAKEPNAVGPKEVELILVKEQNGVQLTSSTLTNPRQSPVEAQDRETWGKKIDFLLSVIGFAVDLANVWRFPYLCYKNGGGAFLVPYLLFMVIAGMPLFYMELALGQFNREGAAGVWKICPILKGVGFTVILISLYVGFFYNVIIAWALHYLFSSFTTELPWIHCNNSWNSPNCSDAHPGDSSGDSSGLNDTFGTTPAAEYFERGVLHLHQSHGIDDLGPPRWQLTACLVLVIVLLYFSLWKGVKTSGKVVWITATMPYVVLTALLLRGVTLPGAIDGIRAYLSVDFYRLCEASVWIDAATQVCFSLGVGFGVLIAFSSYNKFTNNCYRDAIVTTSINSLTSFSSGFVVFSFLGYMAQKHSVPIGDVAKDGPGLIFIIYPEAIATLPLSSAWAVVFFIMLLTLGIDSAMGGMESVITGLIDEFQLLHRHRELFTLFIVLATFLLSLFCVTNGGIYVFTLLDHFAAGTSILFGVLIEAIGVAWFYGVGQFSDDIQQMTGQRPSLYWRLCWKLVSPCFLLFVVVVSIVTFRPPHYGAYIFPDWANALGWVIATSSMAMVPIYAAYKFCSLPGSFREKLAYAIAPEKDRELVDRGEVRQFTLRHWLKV

[12] = biological target: Peroxisome proliferator-activated receptor gamma (Homo sapiens) (UniProt P37231); assay: Displacement of [3H]rosiglitazone from human recombinant PPARgamma receptor expressed in Escherichia coli at 10 uM after 120 mins by scintillation counting
[13] = biological target: Substance-K receptor (Homo sapiens) (UniProt P21452); assay: Displacement of [125I]NKA from human recombinant NK2 receptor expressed in CHO cells at 10 uM after 60 mins by scintillation counting; format: cell-based
[14] = biological target: P2X purinoceptor 7 (Homo sapiens, UniProt Q99572); assay: Antagonist activity at P2X7 receptor; format: functional
[15] = biological target: Neuropeptide Y receptor type 2 (Homo sapiens) (UniProt P49146); assay: Displacement of [125I]peptideYY from neuropeptide Y2 receptor in human KAN-TS cells at 10 uM after 60 mins by scintillation counting; format: cell-based
[16] = tested on: Hepatocyte; assay: Metabolic stability in rat hepatocytes; format: ADME, cell-based
[17] = biological target: Substance-P receptor (Homo sapiens) (UniProt P25103); assay: Displacement of [125I]BH-SP from NK1 receptor in human U-373MG cells at 10 uM after 60 mins by scintillation counting; format: cell-based; conditions: U-373MG ATCC
[18] = biological target: Prostaglandin E2 receptor EP2 subtype (Homo sapiens) (UniProt P43116); assay: Displacement of [3H]PGE2 from human recombinant EP2 receptor expressed in HEK293 cells at 10 uM after 120 mins by scintillation counting; format: cell-based
[19] = biological target: 5-hydroxytryptamine receptor 1A (Homo sapiens) (UniProt P08908); assay: Displacement of [3H]8-OH-DPAT from human recombinant 5HT1A receptor expressed in HEK293 cells at 10 uM after 60 mins by scintillation counting; format: cell-based
Sequence of 5-hydroxytryptamine receptor 1A (Homo sapiens) (P08908 whole entry): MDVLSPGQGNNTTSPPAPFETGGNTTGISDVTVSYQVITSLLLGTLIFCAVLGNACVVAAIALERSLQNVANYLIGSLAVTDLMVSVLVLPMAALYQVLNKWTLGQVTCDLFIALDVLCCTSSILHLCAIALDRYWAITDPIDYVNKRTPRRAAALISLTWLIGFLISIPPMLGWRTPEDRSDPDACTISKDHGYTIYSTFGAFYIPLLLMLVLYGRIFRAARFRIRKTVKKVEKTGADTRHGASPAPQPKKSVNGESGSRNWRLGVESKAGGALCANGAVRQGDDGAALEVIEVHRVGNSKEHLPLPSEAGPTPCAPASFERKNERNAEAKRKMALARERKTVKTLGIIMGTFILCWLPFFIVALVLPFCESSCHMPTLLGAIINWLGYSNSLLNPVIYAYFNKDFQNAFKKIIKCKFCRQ

[20] = biological target: B2 bradykinin receptor (Homo sapiens) (UniProt P30411); assay: Displacement of [3H]bradykinin from human recombinant bradykinin B2 receptor expressed in CHO cells at 10 uM after 60 mins by scintillation counting; format: cell-based
Sequence of B2 bradykinin receptor (Homo sapiens) (P30411 whole entry): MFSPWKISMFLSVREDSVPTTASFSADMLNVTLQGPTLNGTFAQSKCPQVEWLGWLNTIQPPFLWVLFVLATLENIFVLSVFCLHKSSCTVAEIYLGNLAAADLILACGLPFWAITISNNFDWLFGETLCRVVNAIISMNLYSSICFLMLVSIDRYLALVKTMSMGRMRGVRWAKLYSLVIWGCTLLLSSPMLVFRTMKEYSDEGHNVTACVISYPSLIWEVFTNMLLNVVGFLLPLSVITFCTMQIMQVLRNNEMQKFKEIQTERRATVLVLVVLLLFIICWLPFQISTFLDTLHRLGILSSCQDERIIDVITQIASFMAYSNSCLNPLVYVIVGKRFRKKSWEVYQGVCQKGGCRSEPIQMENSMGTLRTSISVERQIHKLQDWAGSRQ

[21] = biological target: 5-hydroxytryptamine receptor 2C (Homo sapiens) (UniProt P28335); assay: Displacement of [3H]mesulergine from human recombinant 5HT2C receptor expressed in HEK293 cells at 10 uM after 120 mins by scintillation counting; format: cell-based
[22] = biological target: Muscarinic acetylcholine receptor M3 (Homo sapiens) (UniProt P20309); assay: Displacement of [3H]4-DAMP from human recombinant muscarinic M3 receptor expressed in CHO cells at 10 uM after 60 mins by scintillation counting; format: cell-based
Sequence of Muscarinic acetylcholine receptor M3 (Homo sapiens) (P20309 whole entry, looked up): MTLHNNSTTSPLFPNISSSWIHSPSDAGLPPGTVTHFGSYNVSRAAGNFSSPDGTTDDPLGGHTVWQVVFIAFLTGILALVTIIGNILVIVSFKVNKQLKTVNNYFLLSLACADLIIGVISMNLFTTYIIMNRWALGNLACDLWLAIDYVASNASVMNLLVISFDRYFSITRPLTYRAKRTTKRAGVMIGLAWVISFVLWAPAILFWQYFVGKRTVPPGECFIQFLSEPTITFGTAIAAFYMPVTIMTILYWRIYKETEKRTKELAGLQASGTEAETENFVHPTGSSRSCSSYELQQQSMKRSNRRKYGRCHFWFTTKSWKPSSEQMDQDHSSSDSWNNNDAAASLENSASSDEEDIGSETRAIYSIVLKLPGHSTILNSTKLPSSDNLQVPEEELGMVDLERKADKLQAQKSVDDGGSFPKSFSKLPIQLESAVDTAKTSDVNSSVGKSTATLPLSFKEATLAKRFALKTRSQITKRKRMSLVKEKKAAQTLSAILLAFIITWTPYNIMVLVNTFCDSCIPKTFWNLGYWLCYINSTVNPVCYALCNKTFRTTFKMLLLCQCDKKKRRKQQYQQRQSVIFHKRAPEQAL

[23] = biological target: Platelet-derived growth factor receptor (Mus musculus) (UniProt P05622+P26618); assay: Displacement of [125I]PDGF BB from PDGFR in BALB/c mouse 3T3 cells at 10 uM after 180 mins by scintillation counting; format: cell-based
[24] = biological target: D(4) dopamine receptor (Homo sapiens) (UniProt P21917); assay: Displacement of [3H]methyl-spiperone from human recombinant D4.4 receptor expressed in CHO cells at 10 uM after 60 mins by scintillation counting; format: cell-based
[25] = biological target: Glucocorticoid receptor (Homo sapiens) (UniProt P04150); assay: Displacement of [3H]dexamethasone from glucocorticoid receptor in human IM9 cells at 10 uM after 6 hrs by scintillation counting; format: cell-based; conditions: IM-9
[26] = species on record: Rattus norvegicus; assay: Displacement of [3H]DTG from sigma opioid receptor in rat cerebral cortex at 10 uM after 120 mins by scintillation counting; format: tissue-based
[27] = Half life in po dosed rat; format: ADME, organism-based; conditions: in vivo
[28] = biological target: P2X purinoceptor 2 (Homo sapiens, UniProt Q9UBL9); assay: Antagonist activity at P2X2 receptor; format: functional
[29] = biological target: Cannabinoid receptor 1 (Homo sapiens) (UniProt P21554); assay: Displacement of [3H]CP-55940 from human recombinant CB1 receptor expressed in CHO cells at 10 uM after 120 mins by scintillation counting; format: cell-based
[30] = biological target: Muscarinic acetylcholine receptor M5 (Homo sapiens) (UniProt P08912); assay: Displacement of [3H]4-DAMP from human recombinant muscarinic M5 receptor expressed in CHO cells at 10 uM after 60 mins by scintillation counting; format: cell-based
[31] = Protein binding in rat plasma; format: ADME, cell-free; conditions: read-out: PPB (converted)
[32] = species on record: Rattus norvegicus; assay: Displacement of [125I][Tyr4]bombesin from Bombesin receptor in rat cerebral cortex at 10 uM after 60 mins by scintillation counting; format: tissue-based
[33] = biological target: Adenosine receptor A3 (Homo sapiens) (UniProt P0DMS8); assay: Displacement of [125I]AB-MECA from human recombinant A3 receptor expressed in HEK293 cells at 10 uM after 120 mins by scintillation counting; format: cell-based
Sequence of Adenosine receptor A3 (Homo sapiens) (P0DMS8 whole entry): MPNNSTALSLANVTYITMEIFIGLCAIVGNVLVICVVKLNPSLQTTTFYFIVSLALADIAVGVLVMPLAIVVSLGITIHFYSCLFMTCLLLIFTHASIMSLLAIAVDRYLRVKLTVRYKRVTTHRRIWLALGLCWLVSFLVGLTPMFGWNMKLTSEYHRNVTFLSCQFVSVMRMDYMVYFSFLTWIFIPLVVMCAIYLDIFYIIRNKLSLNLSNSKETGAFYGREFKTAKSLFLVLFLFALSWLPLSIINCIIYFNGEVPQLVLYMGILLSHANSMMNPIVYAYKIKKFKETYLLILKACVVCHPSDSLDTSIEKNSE

[34] = biological target: Histamine H2 receptor (Homo sapiens) (UniProt P25021); assay: Displacement of [125I]APT from human recombinant histamine H2 receptor expressed in CHO cells at 10 uM after 120 mins by scintillation counting; format: cell-based
Sequence of Histamine H2 receptor (Homo sapiens) (P25021 whole entry): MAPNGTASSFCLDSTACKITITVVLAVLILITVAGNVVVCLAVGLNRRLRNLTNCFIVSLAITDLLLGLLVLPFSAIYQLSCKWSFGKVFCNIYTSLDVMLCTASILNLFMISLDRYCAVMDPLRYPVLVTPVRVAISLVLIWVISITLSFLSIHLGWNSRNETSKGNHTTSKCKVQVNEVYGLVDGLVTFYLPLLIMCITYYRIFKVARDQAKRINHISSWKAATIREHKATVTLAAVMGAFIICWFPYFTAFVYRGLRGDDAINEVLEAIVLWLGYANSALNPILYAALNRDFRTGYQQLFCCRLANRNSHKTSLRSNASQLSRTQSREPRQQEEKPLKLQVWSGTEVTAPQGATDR

Sequence of Galanin receptor type 1 (Homo sapiens) (P47211 whole entry): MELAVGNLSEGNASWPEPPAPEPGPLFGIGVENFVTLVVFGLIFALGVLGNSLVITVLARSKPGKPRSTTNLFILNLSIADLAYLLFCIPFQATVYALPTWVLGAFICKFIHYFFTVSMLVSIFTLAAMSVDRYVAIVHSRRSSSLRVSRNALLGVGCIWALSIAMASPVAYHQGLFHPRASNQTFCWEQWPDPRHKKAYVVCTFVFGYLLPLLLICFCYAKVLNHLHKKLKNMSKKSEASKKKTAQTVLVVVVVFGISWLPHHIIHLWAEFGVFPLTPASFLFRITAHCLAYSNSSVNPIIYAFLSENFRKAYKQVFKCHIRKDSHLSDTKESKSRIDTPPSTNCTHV

For CC(=O)N1CCN(C[C@@H](C)NC(=O)c2cc3c(-c4ccccc4)nn(C)c3s2)CC1, the Activity [1] was > 50%, the Activity [2] was > 50% and the Activity [3] was > 50%. The Activity [4] was > 50%, the Activity [5] was > 50% and the IC50 [6] was > 10 µM. The Activity [7] was > 50%, the Activity [8] was > 50% and the bioavailability [9] was 89%. For the same molecule, the Activity [10] was > 50%, the Activity [11] was > 50% and the Activity [12] was > 50%. The Activity [13] was > 50%, the IC50 [14] was > 10 µM and the Activity [15] was > 50%. For the same molecule, the Stability [16] was 3.93 µL/min/mg, the Activity [17] was > 50% and the Activity [18] was > 50%. The Activity [19] was > 50%, the Activity [20] was > 50% and the Activity [21] was > 50%. The Activity [22] was > 50%, the Activity [23] was > 50% and the Activity [24] was > 50%. For the same molecule, the Activity [25] was > 50%, the Activity [26] was > 50% and the half-life [27] was 1.6 h. The IC50 [28] was > 10 µM, the Activity [29] was > 50% and the Activity [30] was > 50%. The fraction unbound [31] was 0.11, the Activity [32] was > 50% and the Activity [33] was > 50%. The Activity [34] was > 50%.

— ChEMBL document CHEMBL1159093, “Discovery and optimization of RO-85, a novel drug-like, potent, and selective P2X3 receptor antagonist” (Bioorg Med Chem Lett, 2010)
